Tested on: xenograft tumors
Assay: Response of subcutaneous xenograft tumors to MTKI in vivo
Design: species or system nude immuno-compromised mice; key: R: A responder is predicted when minimally 4 peptides have a ratio <0.8; NR = Non-Responder to MTKI
Procedure: To explore whether a similar approach allows for the classification of responder and non-responder tumors, the same strategy as above was applied to 12 different xenograft tumors, which were subcutaneously grown in nude immuno-compromised mice from human cancer cell lines. […] Lysates were made from homogenized frozen tumor blocks and analyzed in the absence or presence of 5 μM MTKI, as before.

Measured: response status

COc1cc2ncnc3c2cc1OCCCCCN(C)Cc1ccc(Br)cc1N3 [MTKI, 4,6-ethanediylidenepyrimido[4,5-b][6,1,12]benzoxadiazacyclopentadecine, 17-bromo-8,9,10,11,12,13,14,19-octahydro-20-methoxy-13-methyl-]
NR: H441 xenograft tumor | H460 xenograft tumor | H1703 xenograft tumor | HT29 xenograft tumor | PC3 xenograft tumor | SKOV3 xenograft tumor | U87MG xenograft tumor

From patent US20100234238A1, “METHOD FOR PROFILING KINASE INHIBITORS” (Janssen Pharmaceutica N V, priority 2006, published 2010)
